In patent US20230340101A1, “METHODS FOR TREATING OR PREVENTING ALLERGIC ASTHMA BY ADMINISTERING AN IL-33 ANTAGONIST AND/OR AN IL-4R ANTAGONIST” (SANOFI BIOTECHNOLOGY, priority 2019, published 2023):
“Also recorded” adds a separate entry of the source.

What was measured:
[1] = system: HDM-driven lung inflammation; experiment: Chronic house dust mite (HDM) model of lung inflammation; format: in vivo; conditions: FIG. 5; for pro-inflammatory cytokines and chemokines (lung panel hIL-4, IL-5, IL-1b, TNFα, IFNg, GROa, MCP-1): chronic HDM model; for inflammation in chronic HDM model of lung inflammation (lung eosinophils, lung neutrophils): with and without anti-IL-33 treatment
Source text: Data is presented showing levels of lung eosinophils and lung neutrophils in the HDM model with and without anti-IL-33 treatment. A heat map of a lung cytokine gene panel is presented showing levels of hIL-4, IL-5, IL-1b, TNFα, IFNg, GROa, and MCP-1. Alveolar SMA testing data is presented as well.
Treatment with REGN3 500 suppressed pro-inflammatory cytokines and chemokines. […] Other data presented includes a heat map of lung of cytokine panel showing levels of hIL-4, IL-5, IL-1b, TNFα, IFNg, GROa, and MCP-1. Alveolar SMA testing was also performed.

[2] = system: BAC-induced inflammatory gene expression signatures in sputum; experiment: Bronchial allergen challenge (BAC) with HDM in patients with mild allergic asthma: gene expression signatures (mRNA) in induced sputum; format: in vivo, human; conditions: for eosinophil gene signature scores: FIG. 14, post bronchial allergen challenge, across treatment arms; for allergen-induced eosinophilic signature and broader type 2 inflammatory signature, including CCL26, CCL17, and SIGLEC8: monotherapy, REGN3500 IV 10 mg/kg single dose, dupilumab SC 600 mg day 1, 300 mg day 15, sputum after BAC
Protocol: Bronchial allergen challenge involves patient inhalation of allergen that results in a biphasic airway response, which is characterized by an early (30 minutes to 2 hours post-allergen challenge) and a late (approximately 3 to 8 hours post-allergen challenge) decline in forced expiratory volume over 1 second (FEV1).
Enrolled patients undergo BAC during the screening period, and at 4 and 8 weeks after administration of the first doses of study drug(s). The effects of the study drugs on BAC-induced lung inflammation are assessed via measurements of sputum molecular signatures (mRNAs and proteins). The sputum molecular signatures are assessed before BAC (baseline) and after BAC (post-BAC) at screening and at weeks 4 and 8 after treatment initiation (FIG. 1). The BAC-induced difference in the sputum signatures before and after BAC are evaluated at screening (screening change) and at weeks 4 and 8 post-treatment (week 4 change and week 8 change) will be observed. Since both REGN3500 and dupilumab display long half-lives, BAC change is evaluated at both week 4 and week 8 in the current study, to monitor the durability of the potential impact of study drug treatment on airway inflammation. The effect of study drug treatment on induced sputum gene signatures is evaluated by the difference between the BAC-induced screening change and the BAC-induced week 4 change (screening to week 4 change) and by the difference between the BAC-induced screening change and the BAC-induced week 8 change (screening to week 8 change).
Part 1 of this study is a randomized, double-blind, placebo-controlled, double-dummy parallel group study in mild persistent allergic asthmatic patients to assess the effect of REGN3500, dupilumab, REGN3500 plus dupilumab combination, or placebo on lung inflammation (as measured by sputum cytokine mRNAs) and measurements of the late phase inflammatory airway response to a BAC using HDM. Patients are randomized to one of the following treatment groups: REGN3500 (IV single dose); dupilumab (SC 2 doses, Q2W); combination REGN3500 (IV single dose) plus dupilumab (SC 2 doses, Q2W), and placebo (IV single dose and SC 2 doses, Q2W).
Because the treatment groups in this study include a first clinical dosing of REGN3500 plus dupilumab combination, Part 1 is performed in 2 phases to address any potential safety issues. The first 8 patients are randomized 1:1:1:1 to receive study drug. On day 1: patients in the REGN3500 group receive REGN3500 IV 10 mg/kg, followed by dupilumab-matching placebo SC, patients in the dupilumab group receive REGN3500-matching placebo IV followed by a loading dose of dupilumab SC 600 mg (2 injections of 300 mg), patients in the REGN3500 plus dupilumab combination will receive REGN3500 10 mg/kg IV, followed by dupilumab SC 600 mg (2 injections of 300 mg), and patients in the placebo group will receive REGN3500-matching placebo IV, followed by 2 injections of dupilumab-matching placebo SC.
On day 15 (week 2), patients assigned to the dupilumab group or the REGN3500 plus dupilumab combination group receive dupilumab SC 300 mg and all other patients receive dupilumab-matching placebo SC.
All enrolled patients return to the clinic on day 24± 2 days and on day 52 ± 2 days to provide a baseline induced sputum sample. If an adequate sputum sample cannot be obtained, patients may return 72 hours later for a second attempt to produce baseline sputum. Pre-BAC sputum collection must occur at least 72 hours prior to the BAC. Seventy-two hours after the baseline induced sputum sample is collected, on day 29 ± 2 days and on day 57 ± 2 days, respectively, patients return to the clinic, and measurements of FEV1, and FeNO are performed prior to undergoing BAC with HDM. Sputum induction is performed 8 hours and 24 hours after inhaled BAC at both the days 29 ± 2 (week 4) and 57 ± 2 days (week 8) visits. […]

[3] = system: blood eosinophils, neutrophils, circulating type 2 inflammatory mediators; experiment: BAC study: blood eosinophils, neutrophils and circulating type 2 inflammatory mediators; format: in vivo, human
Protocol: Circulating Biomarkers: circulating biomarker samples are collected at time points according to Table 1 and Table 2. Biomarker measurements are performed in serum and plasma samples to determine effects on biomarkers of inflammatory diseases pathobiology or relevant physiological and pathogenic processes. The biomarkers studied are ones believed to be relevant to the pathophysiology of diseases, target engagement, mechanism of action of REGN3500 (and/or combination therapy) and possible toxicities. Biomarkers studied in the blood may include but need not be limited to, IL-33, soluble ST2, calcitonin, and MMP12.

Row | Substance | pro-inflammatory cytokines and chemokines (lung panel hIL-4, IL-5, IL-1b, TNFα, IFNg, GROa, MCP-1) ([1]; listed as REGN3 500) | pro-inflammatory cytokines and chemokines (lung panel hIL-4, IL-5, IL-1b, TNFα, IFNg, GROa, MCP-1) ([1]; listed as anti-IL-33) | inflammation in chronic HDM model of lung inflammation (lung eosinophils, lung neutrophils) [1] | inflammation in chronic HDM model of lung inflammation (lung eosinophils, lung neutrophils) ([1]; listed as anti-IL-33) | type 2 inflammatory cytokine and chemokine genes induced by BAC (IL-5, IL-13, Eot-3 (CCL26), TARC (CCL17), CCL1, FCER2, SIGLEC8) ([2]; FIG. 9, genes induced at 8 or 24 hours after allergen challenge, sputum) | eosinophil signature genes in sputum (ADARB1, ASB2, CLC, HDC, IL1RL1, PTPN7, SIGLEC8, SYNE1, VSTM1) ([2]; FIG. 11) | neutrophil signature genes ([2]; FIG. 11, sputum) | type 2 inflammatory signature genes in sputum (IL-4, IL-13, CCL26, CCL13, CCL17, CCL11, POSTN, IL-5, IL-9) ([2]; FIG. 12) | eosinophil gene signature scores [2] | decrease of type 2 signature scores ([2]; FIG. 15, compared with the fluticasone treatment arm) | allergic asthma signature genes (BC042385 ... RHOH) ([2]; FIG. 16, at 8 and/or 24 hours post BAC) | top allergic asthma signature genes induced by BAC at 24 hours (ASAP1-IT1 ... CCL17, CCL13, CCL26, SIGLEC8, IL13, IL5, PTGDS, RD3) ([2]; FIG. 17, screening vs treatment) | allergen-induced eosinophilic signature and broader type 2 inflammatory signature, including CCL26, CCL17, and SIGLEC8 [2] | neutrophils ([3]; in vivo) | other circulating type 2 inflammatory mediators ([3]; in vivo) | blood eosinophils ([3]; pharmacodynamic effect) | genes suppressed by REGN3500 (many of them) ([2]; albeit with different dynamics)
1 | REGN3500: human anti-IL-33 antibody; HCVR/LCVR SEQ ID NOs: 2 and 10, heavy/light chain SEQ ID NOs: 18 and 20 | suppressed | suppresses | reduced inflammation | reduces inflammation | suppressed | suppressed; also recorded: suppression | No anti-IL-33 (REGN3500) treatment-mediated effects were noted; also recorded: did not have an effect | suppressed; also recorded: suppression | able to reduce | lower decrease | affected | suppressed | significantly inhibited | No anti-IL-33 mediated reduction | no anti-IL-33 mediated reduction | reduction in blood eosinophils was a consistent pharmacodynamic effect | –
2 | dupilumab: human anti-IL-4R antibody; HCVR/LCVR SEQ ID NOs: 27 and 28, heavy/light chain SEQ ID NOs: 29 and 30 [reference compound] | – | – | – | – | – | – | – | – | able to reduce | – | – | – | significantly inhibited | – | – | – | also suppressed
